Our source for the IC50 values is US20230009608A1, “GRK2 INHIBITORS AND USES THEREOF” (Cygnal Therapeutics, Inc., priority 2020, published 2023).

Each structure is given as a SMILES string. Like-named read-outs stand apart in the source and are kept apart here. Bounds are passed on as bounds.

Assay [1] has as its system PAXF1657 control empty vector cell line. Put plainly: 7-day proliferation assay, PAXF1657 control empty vector cell line (Example 9). Type of assay: cell-based. The conditions noted are these: 168 h; Cell Line: PAXF1657 empty vector (EV) cell line; 7-day; read-out: C: 7-day proliferation assay: IC50 GeoMean. The protocol:
In order to identify compounds specific for GRK2, we generated two isogenic cell line pairs of the pancreatic cancer cell line PAXF1657, a pair of cells stably overexpressing GRK2 cDNA or the control empty vector and a cell line pair of PAXF1657 GRK2 knockout clonal cells versus non-targeting control clonal cells.
Proliferation Assay: Cellular anti-proliferative activity of compounds was assessed by using the pancreatic cancer cell line, PAXF1657, stably overexpressing GRK2 cDNA or the control empty vector, as well as the parental urinary bladder cancer cell line, 5637. In addition, we also took advantage of GRK2 knockout cell lines that were generated via CRISPR. Cell lines were seeded into tissue culture treated, white-walled, 96-well plates at a density of 500 cells/well in RPMI1640 media supplemented with 10% H.I. FBS and penicillin/streptomycin. Plates were incubated overnight at 37° C., 5% CO2 to allow cells to adhere to the wells. GRK2 inhibitors were added to the cells using a 10-point dilution series with a final concentration ranging from 30 μM-0.0002 μM in 0.3% DMSO. At the time of compound addition, a set of plates, that were not treated with compounds, were collected and cell viability was measured using CellTiter-Glo (Promega). CellTiter-Glo reagent was added to the designed plates and luminescence was measuring using a Biotek Synergy plate reader. The compound treated cells were incubated for 3 days at 37° C., 5% CO2. The media was then aspirated from each well and replaced with fresh media containing GRK2 inhibitors. The compound treated cells were then incubated for an additional 4 days at 37° C., 5% CO2. Cell viability was assessed and at end of the 7-day compound treatment by CellTiterGlo.

Assay [2] deals with T1, GRK2 (Homo sapiens, UniProt P25098).
T1 construct: purchased SignalChem A14-10G
T1 sequence (P25098 1-689): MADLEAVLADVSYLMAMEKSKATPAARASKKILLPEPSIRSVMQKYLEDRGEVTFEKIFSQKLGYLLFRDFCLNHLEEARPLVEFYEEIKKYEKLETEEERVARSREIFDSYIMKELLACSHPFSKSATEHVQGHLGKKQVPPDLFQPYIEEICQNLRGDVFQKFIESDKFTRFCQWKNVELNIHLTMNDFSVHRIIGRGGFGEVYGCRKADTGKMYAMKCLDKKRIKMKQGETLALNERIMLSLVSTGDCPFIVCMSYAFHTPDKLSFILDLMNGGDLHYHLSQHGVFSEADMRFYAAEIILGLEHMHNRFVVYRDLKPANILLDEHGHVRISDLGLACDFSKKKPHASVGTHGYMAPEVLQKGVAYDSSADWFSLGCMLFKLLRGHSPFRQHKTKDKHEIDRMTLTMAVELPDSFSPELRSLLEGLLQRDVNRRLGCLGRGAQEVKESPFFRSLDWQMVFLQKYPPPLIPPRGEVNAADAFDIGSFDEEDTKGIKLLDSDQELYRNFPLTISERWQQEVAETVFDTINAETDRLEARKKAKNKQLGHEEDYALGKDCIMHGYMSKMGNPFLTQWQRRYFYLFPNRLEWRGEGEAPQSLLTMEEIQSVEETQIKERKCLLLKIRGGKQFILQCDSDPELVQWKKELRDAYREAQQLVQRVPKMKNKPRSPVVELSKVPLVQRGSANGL
The experiment in a line: ADPGlo GRK2 Inhibition Assay (Example 8). In kind it is biochemical. Put shortly:
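GRK2 (15 nM 2× enzyme solution) was preincubated 15 min with compound, then reacted 180 min at room temperature with 2× mix of 20 μM ATP plus GRKtide in HEPES pH 7.5, MgCl2, Tween-20, DTT. ADP was detected by ADP-Glo luminescence. Percent inhibition was normalised to enzyme and no-enzyme controls, with dose-response curves from threefold dilutions starting at 100 μM.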
For orientation: ADP-Glo first removes unused ATP, then detects ADP through luciferase.

The mark [3] stands for this setting: ADPGlo GRK2 enzyme assay, read-out: A: Enzymatic GRK2: IC50 (nM) (Example 8).
[4] abbreviates: 7.5 nM GRK2, 10 μM ATP, ADP-Glo, read-out: GRK2 IC50 (nM) (Example 8).

`COc1cccc([C@@H](C)NC(=O)c2cccc(NCc3nnc(-c4ccncc4)n3C)c2)c1`: the figures for the IC50 in assay [1] and in assay [2] (setting [3]) were > 30 µM and 7.61 nM, respectively.
For `C[C@H](NC(=O)c1cccc(NCc2nnc(-c3ccncc3)n2C)c1)c1ncccc1Cl`, the IC50 was > 1.85 µM in assay [1] and 2.97 nM in assay [2] (setting [3]).
For `C[C@@H](NC(=O)c1cccc(NCc2nnc(-c3ccncc3)n2C)c1)c1ncccc1Cl` the same measures were > 4.78 µM and 11.4 nM.
As to `COc1ncc(Br)cc1CNC(=O)c1cccc(NCc2nnc(-c3ccncc3)[nH]2)c1`, the IC50 stood at 21.7 µM in assay [1] and 10.2 nM in assay [2] (setting [3]).
The corresponding values for `Cc1ccc(C#N)cc1CNC(=O)c1cccc(NCc2nnc(-c3ccncn3)n2CCO)c1` are > 30 µM and 3.22 nM.
In the case of `COc1ncc(Br)cc1CNC(=O)c1cccc(NCc2nnc(-c3ccncn3)n2CCO)c1`, the values for the IC50 in assay [1] and in assay [2] (setting [3]) were > 30 µM and 4.12 nM, respectively.
Regarding `Cc1ccc(C#N)cc1CNC(=O)c1cccc(NCc2nnc(-c3ccncc3)n2CCO)c1`, the IC50 in assay [1] is > 4.6 µM; in assay [2] (setting [3]), 4.82 nM.
With `COc1ncc(Br)cc1CNC(=O)c1cccc(NCc2nnc(-c3ccncc3)n2CCO)c1`, the IC50 came out at 15.1 µM in assay [1] and 7.15 nM in assay [2] (setting [3]).
As for `COc1cccc([C@H](C)NC(=O)c2cccc(NCc3nnc(-c4ccncc4)[nH]3)c2)c1`, the IC50 is > 30 µM in assay [1] and 17.5 nM in assay [2] (setting [3]).
For `Cn1c(CNc2cccc(C(=O)N[C@@H]3CCOc4ccccc43)c2)nnc1-c1ccncn1` the same measures were 0.227 µM and 23 nM.
The corresponding values for `Cc1cccnc1[C@H](C)NC(=O)c1cccc(NCc2nnc(-c3ccncn3)n2C)c1` are > 30 µM and 15 nM.
The corresponding values for `Cc1cccnc1[C@@H](C)NC(=O)c1cccc(NCc2nnc(-c3ccncn3)n2C)c1` are 3.79 µM and 26 nM.
With `CN1CC[C@@H](NC(=O)c2cccc(NCc3nnc(-c4ccncn4)n3C)c2)c2ccccc21`, the IC50 was > 30 µM in assay [1] and 21 nM in assay [2] (setting [3]).
For `Cn1c(CNc2cccc(C(=O)N[C@H]3COCc4ccccc43)c2)nnc1-c1ccncn1` the same measures were > 11.8 µM and 66 nM.
The corresponding values for `Cn1c(CNc2cccc(C(=O)NC3COc4cc(F)ccc43)c2)nnc1-c1ccncn1` (stereo not shown) are 0.547 µM and 35.4 nM.
On to `COc1ccc(F)c(CNC(=O)c2cccc(NCc3nnc(-c4ccncn4)n3C)c2)c1`, for which the IC50 was 0.917 µM in assay [1] and 20 nM in assay [2] (setting [3]).
As to `C#Cc1ccc(CNC(=O)c2cccc(NCc3nnc(-c4ccncn4)n3C)c2)c(F)c1`, the IC50 in assay [1] was determined as 0.413 µM; in assay [2] (setting [3]), 12 nM.
Turning to `Cn1c(CNc2cccc(C(=O)NC3CCS(=O)(=O)c4ccccc43)c2)nnc1-c1ccncn1` (stereo not shown), the values for the IC50 in assay [1] and in assay [2] (setting [3]) were 2.79 µM and 18.2 nM, respectively.
As for `CN1Cc2ccccc2C(NC(=O)c2cccc(NCc3nnc(-c4ccncn4)n3C)c2)C1=O` (stereo not shown), the IC50 is > 1.9 µM in assay [1] and 63.5 nM in assay [2] (setting [3]).
For `Cn1c(CNc2cccc(C(=O)NCc3cccc4c3NC(=O)CO4)c2)nnc1-c1ccncn1`, the IC50 is 2.99 µM in assay [1] and 9.78 nM in assay [2] (setting [3]).
Turning to `Cn1c(CNc2cccc(C(=O)NC3CCS(=O)(=O)c4ccc(F)cc43)c2)nnc1-c1ccncn1` (stereo not shown), the IC50 in assay [1] stood at 8.68 µM; in assay [2] (setting [3]), 65.4 nM.
For `COc1ncc(Br)cc1CNC(=O)c1cccc(NCc2nnc(-c3ccncn3)n2C)c1` the same measures were 0.61 µM and 21.5 nM.
On to `Cc1cc(C)n(C)c(=O)c1CNC(=O)c1cccc(NCc2nnc(-c3ccncn3)n2C)c1`, for which the IC50 in assay [1] is 1.7 µM; in assay [2] (setting [3]), 9.97 nM.
For `Cn1c(CNc2cccc(C(=O)NCc3ccccc3S(=O)(=O)N3CCCC3)c2)nnc1-c1ccncn1` the same measures were 2.17 µM and 26.9 nM.
For `Cn1c(CNc2cccc(C(=O)NCc3cccnc3Cl)c2)nnc1-c1ccncn1` the same measures were 0.506 µM and 27.6 nM.
Consider `Cc1cc(C)c(CNC(=O)c2cccc(NCc3nnc(-c4ccncn4)n3C)c2)cn1`, for which the IC50 in assay [1] was determined as 0.803 µM; in assay [2] (setting [3]), 17.8 nM.
As to `CC(NC(=O)c1cccc(NCc2nnc(-c3ccncn3)n2C)c1)c1ncccc1F` (stereo not shown), the IC50 was determined as 2.66 µM in assay [1] and 69 nM in assay [2] (setting [3]).
The corresponding values for `C#Cc1ccccc1CNC(=O)c1cccc(NCc2nnc(-c3ccncn3)n2C)c1` are 2.32 µM and 46.4 nM.
For the compound `Cc1nccnc1C(C)NC(=O)c1cccc(NCc2nnc(-c3ccncn3)n2C)c1` (stereo not shown), the IC50 in assay [1] was > 12.5 µM; in assay [2] (setting [3]) it was 61 nM.
With `Cc1nncc(CNC(=O)c2cccc(NCc3nnc(-c4ccncn4)n3C)c2)c1C`, the figures for the IC50 in assay [1] and in assay [2] (setting [3]) were 1.46 µM and 14.3 nM, respectively.
Consider `Cn1c(CNc2cccc(C(=O)NCc3cc(C#N)ccc3F)c2)nnc1-c1ccncn1`, for which the IC50 in assay [1] was > 1.28 µM; in assay [2] (setting [3]) it was 17.6 nM.
The corresponding values for `Cn1c(CNc2cccc(C(=O)NC3COc4ccc(F)cc43)c2)nnc1-c1ccncn1` (stereo not shown) are 1.26 µM and 26.6 nM.
For `CN(C)c1ccccc1CNC(=O)c1cccc(NCc2nnc(-c3ccncn3)n2C)c1` the same measures were 1.61 µM and 14.8 nM.
Regarding `Cn1c(CNc2cccc(C(=O)NCc3cccc4c3OCO4)c2)nnc1-c1ccncn1`, the IC50 came to 0.681 µM in assay [1] and 13.2 nM in assay [2] (setting [3]).
For the compound `COc1nc(C)ccc1CNC(=O)c1cccc(NCc2nnc(-c3ccncn3)n2C)c1`, the results for the IC50 in assay [1] and in assay [2] (setting [3]) were > 30 µM and 30.1 nM, respectively.
For `COc1cc(F)ccc1CNC(=O)c1cccc(NCc2nnc(-c3ccncn3)n2C)c1` the same measures were 28 µM and 24.7 nM.
On to `Cn1c(CNc2cccc(C(=O)NC3CC(O)c4ccccc43)c2)nnc1-c1ccncn1` (stereo not shown), for which the IC50 in assay [1] is > 30 µM; in assay [2] (setting [3]), 65 nM.
Regarding `COc1ccc(C)nc1CNC(=O)c1cccc(NCc2nnc(-c3ccncn3)n2C)c1`, the IC50 was > 12.4 µM in assay [1] and 67.5 nM in assay [2] (setting [3]).
The corresponding values for `Cn1c(CNc2cccc(C(=O)NCc3cncc4c3CCC4)c2)nnc1-c1ccncn1` are > 11.7 µM and 15.3 nM.
The corresponding values for `Cn1c(CNc2cccc(C(=O)NCc3ccccc3OCCO)c2)nnc1-c1ccncn1` are > 6.45 µM and 48.9 nM.
The corresponding values for `Cn1c(CNc2cccc(C(=O)N[C@H](CO)c3cc(F)ccc3F)c2)nnc1-c1ccncn1` are > 30 µM and 43.4 nM.
For `COc1ccccc1C(CO)NC(=O)c1cccc(NCc2nnc(-c3ccncn3)n2C)c1` (stereo not shown), the IC50 in assay [1] is > 13 µM; in assay [2] (setting [3]), 45.4 nM.
`Cn1c(CNc2cccc(C(=O)NC(CO)c3ccc(F)cc3F)c2)nnc1-c1ccncn1` (stereo not shown): the IC50 came to 3.07 µM in assay [1] and 83.1 nM in assay [2] (setting [3]).
Consider `Cn1cccc1CNC(=O)c1cccc(NCc2nnc(-c3ccncn3)n2C)c1` [compound 59], for which, in assay [2] (setting [4]), the IC50 amounted to 9.5 nM.
With `Cn1c(CNc2cccc(C(=O)NC3CCOc4cccnc43)c2)nnc1-c1ccncn1` (stereo not shown) [compound 60], the IC50 in assay [2] (setting [4]) came out at 9.6 nM.
The same measure, in the same setting: with `Cc1nc(CNC(=O)c2cccc(NCc3nnc(-c4ccncn4)n3C)c2)cs1` [compound 61] the figure was 9.8 nM; with `Cn1c(CNc2cccc(C(=O)NC(CO)c3cc(F)ccc3F)c2)nnc1-c1ccncn1` (stereo not shown) [compound 62], 10 nM.
Take `Cc1csc(CNC(=O)c2cccc(NCc3nnc(-c4ccncn4)n3C)c2)n1` [drawing 283]: the IC50 in assay [2] (Enzyme Assay A, ADPGlo (Example 8), read-out: A: Enzymatic GRK2: IC50 (nM) (Example 8)) came to 100 nM.
